This is an account of results in ChEMBL document CHEMBL3867448, “Targeted Isolation of Indolopyridoquinazoline Alkaloids from Conchocarpus fontanesianus Based on Molecular Networks” (2016).

Assay [1] concerns Candida albicans. In words: Antifungal activity against Candida albicans DSY2621 by MTT assay. It counts as functional.
For assay [2], the system named is Candida albicans. Nature of the assay: Antifungal activity against wild type Candida albicans CAF2-1 by MTT assay. It counts as functional.

Regarding `COc1cccc2c3c(c(=O)[nH]c12)C=CC(C)(C)O3`, the MIC against Candida albicans [1] amounted to 15 µg.
`CC1(C)C=Cc2c(O)nc3ccccc3c2O1` [FLINDERSINE] yielded an MIC against Candida albicans [1] of 15 µg.
Take `Clc1ccc(COC(Cn2ccnc2)c2ccc(Cl)cc2Cl)c(Cl)c1` (centres undefined) [MICONAZOLE]: the MIC in the assay with Candida albicans [1] and against Candida albicans [2] was 0.0006 µg in each case.
